Assay results as given in patent publication US11998539B2, “Substituted aminoquinolones as DGKalpha inhibitors for immune activation” (Bayer Aktiengesellschaft, priority 2019, dated 2024).

Molecular target: DGKα (Homo sapiens (Human), UniProt P23743)
Experiment: Human DGKα kinase activity inhibition assay (ADP-Glo)
Format: biochemical
Conditions: recombinant full-length human DGKα, 55 μM ATP, 7 μM 1,2-dioleoyl-sn-glycerol, read-out: IC50 values of examples in in vitro human DGKa kinase activity inhibition assays
Method: Human DGKα Kinase Activity Inhibition Assay
Human DGKα inhibitory activity of compounds of the present invention was quantified employing the human DGKα kinase activity assay as described in the following paragraphs. In essence, the enzyme activity was measured by quantification of the adenosine-di-phosphate (ADP) generated as a co-product of the enzyme reaction via the “ADP-Glo™ Kinase Assay” kit from the company Promega. This detection system works as follows: In a first step the ATP not consumed in the kinase reaction is quantitatively converted to cAMP employing an adenylate cyclase (“ADP-Glo-reagent”), then the adenylate cyclase is stopped and the ADP generated in the kinase reaction converted to ATP, which subsequently generates in a luciferase-based reaction a glow-luminescence signal (“Kinase Detection Reagent”).
C-terminally FLAG-tagged, recombinant full-length human DGKα (expressed in baculovirus infected insect cells, purified using anti-Flag pulldown and size exclusion chromatography as described below, DGKa_hu_1) was used as enzyme. As substrate for the kinase 1,2-dioleoyl-sn-glycerol, reconstituted in octyl-β-D-glucopyranoside micelles, was used. […] Then 35 volumes of 50 mM MOPS buffer (pH 7.4) were added to yield a solution of 0.28 mM 1,2 dioleoyl-sn-glycerol and 200 mM […], which was aliquoted, flash-frozen in liquid nitrogen, and stored at −20° C. until use.
For the assay 50 nl of a 100-fold concentrated solution of the test compound in dimethyl sulfoxide (DMSO, Sigma) was pipetted into either a white 1536-well or a white low-volume 384-well microtiter plate (both Greiner Bio-One, Frickenhausen, Germany).

Sequence of DGKα (P23743 other isoform, or with tags, fused parts or gaps): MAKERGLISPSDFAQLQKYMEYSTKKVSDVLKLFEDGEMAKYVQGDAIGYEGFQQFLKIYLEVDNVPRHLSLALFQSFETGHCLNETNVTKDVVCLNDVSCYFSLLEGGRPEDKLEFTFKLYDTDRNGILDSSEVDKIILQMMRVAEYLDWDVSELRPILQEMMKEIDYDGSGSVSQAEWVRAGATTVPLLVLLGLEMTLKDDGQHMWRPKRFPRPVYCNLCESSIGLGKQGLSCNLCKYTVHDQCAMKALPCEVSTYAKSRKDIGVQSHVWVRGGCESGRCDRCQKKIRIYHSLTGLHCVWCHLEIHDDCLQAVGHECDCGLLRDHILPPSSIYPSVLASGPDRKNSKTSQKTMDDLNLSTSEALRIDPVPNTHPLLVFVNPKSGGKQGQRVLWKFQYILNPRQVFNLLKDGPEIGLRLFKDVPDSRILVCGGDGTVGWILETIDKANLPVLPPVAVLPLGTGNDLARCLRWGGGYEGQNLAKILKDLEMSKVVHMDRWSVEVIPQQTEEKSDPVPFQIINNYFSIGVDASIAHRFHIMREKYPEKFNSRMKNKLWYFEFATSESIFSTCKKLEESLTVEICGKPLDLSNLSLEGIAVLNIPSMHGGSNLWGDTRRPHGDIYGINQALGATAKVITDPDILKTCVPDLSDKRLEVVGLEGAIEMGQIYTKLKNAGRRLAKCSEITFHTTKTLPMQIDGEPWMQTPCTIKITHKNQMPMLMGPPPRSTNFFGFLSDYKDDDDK

SMILES | IC50 [nM]
Cn1c(=O)c(C#N)c(N2CCC(c3nc4ccccc4s3)CC2)c2cc(Br)ccc21 [Example 169, 4-[4-(1,3-benzothiazol-2-yl)piperidin-1-yl]-6-bromo-1-methyl-2-oxo-1,2-dihydroquinoline-3-carbonitrile] | 0.6
Cn1c(=O)c(C(N)=O)c(N2CCC(c3nc4ccccc4s3)CC2)c2ccc(N3CCCC3=O)cc21 [Example 116, 4-[4-(1,3-benzothiazol-2-yl)piperidin-1-yl]-1-methyl-2-oxo-7-(2-oxopyrrolidin-1-yl)-1,2-dihydroquinoline-3-carboxamide] | 36
Cn1c(=O)c(C#N)c(N2CCC(c3nc4cc(C(F)(F)F)ccc4s3)CC2)c2ccccc21 [Example 23, 1-methyl-2-oxo-4-{4-[5-(trifluoromethyl)-1,3-benzothiazol-2-yl]piperidin-1-yl}-1,2-dihydroquinoline-3-carbonitrile] | 12
Cn1c(=O)c(C(N)=O)c(N2CCC(c3ccccc3)CC2)c2ccccc21 [Example 114, 1-methyl-2-oxo-4-(4-phenylpiperidin-1-yl)-1,2-dihydroquinoline-3-carboxamide] | 15
Cc1ccc2oc(C3(C)CCN(c4c(C#N)c(=O)n(C)c5cc(O)c(C#N)cc45)CC3)nc2c1 [Example 426, 7-hydroxy-1-methyl-4-[4-methyl-4-(5-methyl-1,3-benzoxazol-2-yl)piperidin-1-yl]-2-oxo-1,2-dihydroquinoline-3,6-dicarbonitrile] | 13
Cn1c(=O)c(C#N)c(N2CCC(c3cccc(F)c3)CC2)c2ccccc21 [Example 62, 4-[4-(3-fluorophenyl)piperidin-1-yl]-1-methyl-2-oxo-1,2-dihydroquinoline-3-carbonitrile] | 38
Cc1ccccc1C1CCN(c2c(C#N)c(=O)n(C)c3ccccc23)CC1 [Example 82, 1-methyl-4-[4-(2-methylphenyl)piperidin-1-yl]-2-oxo-1,2-dihydroquinoline-3-carbonitrile] | 11
Cc1ccccc1-c1noc(C2CCN(c3c(C(N)=O)c(=O)n(C)c4ccccc34)CC2)n1 [Example 458, 1-methyl-4-{4-[3-(2-methylphenyl)-1,2,4-oxadiazol-5-yl]piperidin-1-yl}-2-oxo-1,2-dihydroquinoline-3-carboxamide] | 4.3
Cn1c(=O)c(C(N)=O)c(N2CCC(c3ccc4c(c3)CC(O)C4)CC2)c2ccccc21 (centres unmarked) [Example 467, 4-[4-(2-hydroxy-2,3-dihydro-1H-inden-5-yl)piperidin-1-yl]-1-methyl-2-oxo-1,2-dihydroquinoline-3-carboxamide] | 3.9
COc1ccc2c(N3CCC(c4nc5ccccc5o4)CC3)c(C#N)c(=O)n(C)c2c1 [Example 243, 4-[4-(1,3-benzoxazol-2-yl)piperidin-1-yl]-7-methoxy-1-methyl-2-oxo-1,2-dihydroquinoline-3-carbonitrile] | 3.5
Cn1c(=O)c(C#N)c(N2CCC(c3nc4ccccc4o3)CC2)c2ccc(N3CCCC3=O)cc21 [Example 35, 4-[4-(1,3-benzoxazol-2-yl)piperidin-1-yl]-1-methyl-2-oxo-7-(2-oxopyrrolidin-1-yl)-1,2-dihydroquinoline-3-carbonitrile] | 7.8
Cc1ccc2oc(C3CCN(c4c(C(N)=O)c(=O)n(C)c5ccc(C6(C(F)(F)F)CC6)cc45)CC3)nc2c1 [Example 507, 1-methyl-4-[4-(5-methyl-1,3-benzoxazol-2-yl)piperidin-1-yl]-2-oxo-6-[1-(trifluoromethyl)cyclopropyl]-1,2-dihydroquinoline-3-carboxamide] | 85
CCC1(c2nc3cc(C)ccc3o2)CCN(c2c(C#N)c(=O)n(C)c3cc(Br)ccc23)CC1 [Example 141, 7-bromo-4-[4-ethyl-4-(5-methyl-1,3-benzoxazol-2-yl)piperidin-1-yl]-1-methyl-2-oxo-1,2-dihydroquinoline-3-carbonitrile] | 5.6
Cn1c(=O)c(C#N)c(N2CCC(c3cnc4ccccc4n3)CC2)c2ccccc21 [Example 321, 1-methyl-2-oxo-4-[4-(quinoxalin-2-yl)piperidin-1-yl]-1,2-dihydroquinoline-3-carbonitrile] | 75
